The values that follow come from patent publication US8709405B2, “Cancer vaccines containing epitopes of oncofetal antigen” (South Alabama Medical Science Foundation, priority 2002, dated 2014).

What all share (format): cell-based, BALB/c mouse
For one test, the system named is Th1 clone L3. Nature of the test: BUdR incorporation ELISA proliferation assay, Th1 clone L3. The settings on record: Table 12. As for the experimental part: (§1) The epitopes recognized by 15 iLRP-reactive T cell clones derived from either naive BALB/c mice, BALB/c mice bearing MCA1315 fibrosarcoma tumors, or from BALB/c mice immunized with either 1 or 10 μg of recombinant murine iLRP were determined by testing the proliferation of those clones to overlapping peptides spanning the region of the iLRP molecule recognized by each clone in the presence of IL-2, as a growth factor for T cells and irradiated, T cell-depleted, syngeneic spleen cells as antigen-presenting cells. Proliferation was measured through ELISA determination of 5-bromodeoxyuridine incorporation during culture.
(§2) More specifically, the epitope-specificity of the iLRP-specific Th1, Tc, and Ts clones was determined using a modification of the 5′-bromodeoxyuridine (BudR) incorporation ELISA technique described in Rohrer, J. W., A. L. Barsoum, D. L. Dyess, J. A. Tucker, and J. H. Coggin, Jr. 1999. Human breast carcinoma patients develop clonable oncofetal antigen-specific effector and regulatory T lymphocytes. J. Immunol. 162:6880, using the Biotrak BUdR incorporation assay (Amersham, Arlington Heights, Ill.). […] When the required color density was reached, the reaction was stopped by adding 25 μl of 1M sulfuric acid to each well and the plate read on a microELISA reader at 450 nm. […]
Background: ELISA stands for enzyme-linked immunosorbent assay.

The next test deals with Th1 clone H1. The experiment in a line: BUdR incorporation ELISA proliferation assay, Th1 clone H1. The settings on record: Table 12. The protocol:
as §1, §2

The subject of test [1] is CD8 iLRP-specific T cell clone M11 (Ts). Nature of the test: BUdR incorporation ELISA proliferation assay, Ts clone M11. Conditions: Table 5. The protocol: as §1, §2
The test system of another test is Tc Clone L2. The experiment in a line: BUdR incorporation ELISA proliferation assay, Tc clone L2. Conditions: Table 11. The protocol:
as §1, §2

In another test the test system is Th1 Clone NC1. The experiment in a line: BUdR incorporation ELISA proliferation assay, Th1 clone NC1. The settings on record: Table 11. The protocol:
as §1, §2

The next test has as its system CD8 T cell clone M3 (Tc). The experiment in a line: BUdR incorporation ELISA proliferation assay, Tc clone M3. The settings on record: Table 4. As for the experimental part:
as §1, §2

The test system of a further test is Th1 clone M2. Nature of the test: BUdR incorporation ELISA proliferation assay, Th1 clone M2. Conditions: Table 12. As for the experimental part: as §1, §2
The next test has as its system Th1 clone NC4. Nature of the test: BUdR incorporation ELISA proliferation assay, Th1 clone NC4. The settings on record: Table 12. The protocol:
as §1, §2

The mark [2] stands for this setting: 100 ng/well, APC, 100 U/ml IL-2, two values given.

With AQPEVADWSEGV [P21 (241-252)], the “Response of clone L3 (in words)” value in the test on Th1 clone L3 is “responded best”. Further, in the test on Th1 clone H1 (setting [2]), the “Proliferation Results (A450) of Th1 Clone H1” value is reported as “.02, .02 A450”. As for ATGATPIAGRFT [P18 (aa 93-104)], in test [1], the “Proliferation of clone M11 (in words)” value was “proliferated equally well”. With EEFQGEWTAPAP [P17 (225-236)], the “Proliferation of CD8 Tc clone L2 (in words)” value in the test on Tc Clone L2 is reported as “proliferated identically”. Consider GEWTAPAPEFTA [P18 (229-240)], for which the “Proliferation of CD8 Tc clone L2 (in words)” value in the test on Tc Clone L2 is listed as “proliferated identically”. Further, in the test with Th1 Clone NC1, the “Response of Th1 clone NC1 (in words)” value is listed as “responded best”. For INLKRTWEKLLL [P7 (aa 49-60)], the “Proliferation of clone M3 (in words)” value in the test with CD8 T cell clone M3 (Tc) was “proliferated to iLRP peptides 7 and 8 equally well”.

As for QVPSVPIQQFPT [P24 (253-264)], in the test on Th1 clone M2, the “Response of clone M2 (in words)” value is “responded best”. For RTWEKLLLAARA [P8 (aa 53-64)], the “Proliferation of clone M3 (in words)” value in the test with CD8 T cell clone M3 (Tc) was “proliferated to iLRP peptides 7 and 8 equally well”. With SAAPTAQATEWV [P30 (277-288)], the “Response of clone H1 (in words)” value in the test on Th1 clone H1 is reported as “responded best”. As to TAQATEWVGATT [P31 (281-292)], in the test with Th1 clone L3 (setting [2]), the “Proliferation Results (A450) of Th1 Clone L3” value is given as “.02, .02 A450”. Take TEWVGATTDWS [P32 (285-295)]: in the test on Th1 clone NC4, the “Response of clone NC4 (in words)” value is reported as “responded best”. As for TPIAGRFTPGTF [P19 (aa 97-108)], the “Proliferation of clone M11 (in words)” value in test [1] is recorded as “proliferated equally well”.
